A short description of series [1]: in vivo. To be noted: C57/BL6, mouse, blood, po, 10 mg/kg.
Description: Drug concentration in C57/BL6 mouse blood at 10 mg/kg, po bid measured after 14 hrs
Series [2] can be described thus: physchem. The settings on record: octanol/water, pH 7.4.
Series [3] can be described thus: in vitro. The settings on record: dog, MDCK.
Description: Apparent permeability coefficient of the compound across apical to basolateral side in dog MDCKII-LE cells
The species named for series [4] is Mus musculus. Kind of series: animal or person. The settings on record: C57/BL6, po, 14 h, read-out: INH.
Description: Inhibition of calcium ionophore A23187-stimulated LTB4 release in C57/BL6 mouse model at 10 mg/kg, po bid measured after 14 hrs
For series [5], the target named is T1, Leukotriene A-4 hydrolase (Homo sapiens, UniProt P09960).
T1 sequence (P09960 whole entry): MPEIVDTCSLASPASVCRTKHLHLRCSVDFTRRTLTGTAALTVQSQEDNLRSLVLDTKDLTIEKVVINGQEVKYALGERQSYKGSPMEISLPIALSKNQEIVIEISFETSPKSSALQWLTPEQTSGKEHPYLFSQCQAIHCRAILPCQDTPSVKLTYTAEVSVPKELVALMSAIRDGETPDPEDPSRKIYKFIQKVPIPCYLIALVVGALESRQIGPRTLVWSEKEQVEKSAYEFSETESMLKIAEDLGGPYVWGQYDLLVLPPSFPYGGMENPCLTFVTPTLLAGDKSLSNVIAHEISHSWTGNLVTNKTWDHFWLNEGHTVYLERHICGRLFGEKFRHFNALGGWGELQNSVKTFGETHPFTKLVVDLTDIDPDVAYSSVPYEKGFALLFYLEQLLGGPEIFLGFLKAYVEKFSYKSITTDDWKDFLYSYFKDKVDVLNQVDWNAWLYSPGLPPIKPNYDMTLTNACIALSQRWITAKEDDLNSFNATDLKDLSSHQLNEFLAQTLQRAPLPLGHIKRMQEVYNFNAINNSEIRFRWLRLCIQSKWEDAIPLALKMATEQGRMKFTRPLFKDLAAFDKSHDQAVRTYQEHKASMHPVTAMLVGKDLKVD
The experiment in a line: Inhibition of LTA4H (unknown origin) using Arg-AMC as substrate preincubated with compound for 15 mins followed by substrate addition and measured after every 10 mins for 30 mins by fluorescence based analysis.

The nature of series [6]: physchem. To be noted: buffer, pH 6.8.
Description: Solubility of the compound at pH 6.8 using amorphous form of sample
The target of series [7] is T2, Voltage-gated inwardly rectifying potassium channel KCNH2 (Homo sapiens, UniProt Q12809). The experiment in a line: Inhibition of hERG by manual patch clamp assay. The class given is toxicity.
Series [8] deals with T2, Voltage-gated inwardly rectifying potassium channel KCNH2. Kind of series: Inhibition of hERG by microfluidic patch clamp assay. The class given is toxicity. (In general: Block of hERG is tested as a sign of cardiac risk.)

We go through 5 compounds from ChEMBL document CHEMBL5518223, “Structure-Guided Elaboration of a Fragment-Like Hit into an Orally Efficacious Leukotriene A4 Hydrolase Inhibitor” (J Med Chem, 2024).

≈ marks a conversion by molar mass, not a printed value.

T2 sequence (Q12809 whole entry): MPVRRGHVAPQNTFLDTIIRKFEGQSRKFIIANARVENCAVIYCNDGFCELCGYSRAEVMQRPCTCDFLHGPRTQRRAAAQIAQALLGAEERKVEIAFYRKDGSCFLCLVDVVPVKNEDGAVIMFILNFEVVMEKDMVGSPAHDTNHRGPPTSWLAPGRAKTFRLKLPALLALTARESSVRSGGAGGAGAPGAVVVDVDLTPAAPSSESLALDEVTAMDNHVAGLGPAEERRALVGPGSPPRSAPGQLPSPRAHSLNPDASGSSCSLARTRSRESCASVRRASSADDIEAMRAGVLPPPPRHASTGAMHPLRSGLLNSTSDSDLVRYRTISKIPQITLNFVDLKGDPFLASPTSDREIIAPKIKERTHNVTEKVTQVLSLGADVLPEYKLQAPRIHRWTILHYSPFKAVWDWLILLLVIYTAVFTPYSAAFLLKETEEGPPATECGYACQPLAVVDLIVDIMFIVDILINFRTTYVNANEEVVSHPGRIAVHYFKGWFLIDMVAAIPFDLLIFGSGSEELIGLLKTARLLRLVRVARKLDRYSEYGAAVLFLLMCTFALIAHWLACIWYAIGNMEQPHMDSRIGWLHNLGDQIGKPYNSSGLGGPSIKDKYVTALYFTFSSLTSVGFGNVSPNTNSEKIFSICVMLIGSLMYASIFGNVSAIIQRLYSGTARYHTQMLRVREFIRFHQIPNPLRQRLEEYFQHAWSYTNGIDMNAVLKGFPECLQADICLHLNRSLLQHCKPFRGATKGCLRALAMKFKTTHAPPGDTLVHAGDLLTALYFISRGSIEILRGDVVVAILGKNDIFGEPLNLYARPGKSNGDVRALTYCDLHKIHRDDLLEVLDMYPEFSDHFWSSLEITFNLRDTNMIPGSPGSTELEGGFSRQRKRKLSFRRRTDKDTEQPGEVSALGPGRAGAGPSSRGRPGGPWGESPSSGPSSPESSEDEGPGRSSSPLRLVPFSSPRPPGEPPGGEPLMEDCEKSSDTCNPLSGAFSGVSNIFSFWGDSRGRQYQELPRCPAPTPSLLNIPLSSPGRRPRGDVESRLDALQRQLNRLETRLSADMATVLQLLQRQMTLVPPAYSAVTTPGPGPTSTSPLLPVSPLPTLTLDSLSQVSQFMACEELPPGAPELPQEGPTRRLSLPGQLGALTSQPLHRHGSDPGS

Regarding `N[C@@H](CC(=O)O)Cn1nnc(-c2ccc(Oc3ncc(Cl)cc3F)cc2)n1`, in series [1], the concentration at 14 h worked out at 184 nM.
As usually defined, the logD is the decadic logarithm of the distribution of all forms, ionised or not, between an organic phase and buffer at a given pH. High values mean higher lipophilicity, low ones lower lipophilicity. As a reminder, the Papp A→B is how fast a substance crosses the layer from the apical side. A lower Papp A→B goes with poor permeation. As usually defined, the IC50 is the midpoint of a concentration-inhibition curve. One may read the solubility as how much of the substance goes into solution per volume. A low value points to little dissolved substance. With `c1ccc(Oc2ccc(-c3c[nH]cn3)cc2)cc1`, the pH-dependent lipophilicity (logD) in series [2] came out at 3.7. The concentration at 14 h in series [1] worked out at 218 nM. The apparent permeability from apical to basolateral (Papp A→B) in series [3] came to 56 ×10⁻⁶ cm/s. Also, the inhibition in vivo at 10 mg/kg in series [4] was determined as 93%. In series [5], the half-inhibitory concentration (IC50) came to 0.088 µM. In series [6], the solubility was found to be 121 µM (≈ 28.6 µg/mL).
Consider `c1cc(-c2ccc(Oc3ccc(CN4CCCC4)nc3)nc2)[nH]n1`, for which the results for the half-inhibitory concentration (IC50) in series [7] and in series [8] were 19 µM and greater than 30 µM, respectively.
On the same counts, the results for `c1cc(-c2ccc(Oc3ccc(CN4CCCCC4)nc3)nc2)[nH]n1` are 27 µM and greater than 30 µM.
Compound `CN(C)Cc1ccc(Oc2ccc(-c3ccn[nH]3)cn2)cn1` had a half-inhibitory concentration (IC50) in series [8] greater than 30 µM.
